Measured values from patent US4599352A, “Antineoplastic platinum (IV) complexes and compositions” (priority 1984, dated 1986).

Key:
[1] = tested on: IP-Implanted L1210 Leukemia; test: Dose-response against IP-implanted L1210 leukemia, IP treatment Days 1, 5 and 9, 30-day test (Table 2); format: in vivo, CD2Fl male mice
Description: (§1) Biological properties of the compounds of the present invention were determined following the protocol described in Cancer Chemotherapy Reports, Vol. 3, No. 3, 1972 which report is incorporated herein by reference.
(§2) This experiment (A8-00005 3LE31) was conducted at the Southern Research Institute, Birmingham, Ala. under the supervision of Dr. Daniel Griswold. The protocols were the same as those published previously (Geran et al., Cancer Chemotherapy Reports 3: No. 2, 1972 [Attachment 11]). 10^5 cells were implanted intraperitoneally in CD2Fl male mice on Day 0. Drug treatments were given intraperitoneally as single injections at the doses indicated on Days 1, 5 and 9 after tumor implantation. The diluent was saline except for NSC-271674 where 5% sodium bicarbonate was used. All drugs were prepared fresh on the day of injection, and all were administered in solution. Median survival times for both control and drug-treated mice were determined and expressed as a percentage (% T/C). Body weights were determined on Day 5 and expressed as a weight difference (body weight of the drug-treated animals minus that of the control animals in grams) (T-C). The diluent control animals lived a median of 8.4 days and gained 1.9 grams by Day 5 in this experiment. All animals, including Day 30 survivors, were used in the calculation of median survival times. The log10 change in tumor burden refers to the net log change in viable tumor cell population at the end of therapy (Rx) as compared to the start of therapy; e.g., a […] means that there was a […] and a 3 log change means there was a 1000-fold increase in tumor burden at the end of therapy. The tumor burden at the start of therapy was about 6.1×10^5 cells in this experiment.

IP L1210/Cisplatin [2] = test: Activity against IP-implanted L1210/Cisplatin leukemia resistant to cisplatin, 60 day test (Table 4); format: in vivo, Female CD2Fl mice
Description: as §1
Other known mechanisms of resistance for other classes of agents, such as gene amplification or target enzyme change or amplication, also need to be explored. The experiments summarized in Table 3 were conducted at the same time against both sublines using the same drug preparations. […] These experiments were repeated in a second laboratory as documented in Table 4. However, in these experiments the animals were held for 60 rather than 30 days to evaluate whether or not long-term survivors are produced after drug treatment in a more challenging setting. […]
(§3) These experiments (23-00081 3LE31 and 23-00003 3DP3l) were conducted concurrently at the Mason Research Institute, Worcester, MA under the supervision of Dr. William Cobb. See Table 4 for experimental details. The diluent control animals bearing L1210 leukemia lived a median of 8.3 days and gained 1.6 grams by Day 5. […] Female CD2Fl mice were used for these experiments.

IP L1210/Cisplatin [3] = test: Activity against IP-implanted L1210/Cisplatin leukemia resistant to cisplatin, 30 day test (Table 3); format: in vivo, Female CD2Fl mice
Description: as §1
(§4) Other known mechanisms of resistance for other classes of agents, such as gene amplification or target enzyme change or amplication, also need to be explored. The experiments summarized in Table 3 were conducted at the same time against both sublines using the same drug preparations. […] These experiments were repeated in a second laboratory as documented in Table 4. However, in these experiments the animals were held for 60 rather than 30 days to evaluate whether or not long-term survivors are produced after drug treatment in a more challenging setting.
This experiment (A8-00005 3LE31) was conducted at the Southern Research Institute, Birmingham, Ala. under the supervision of Dr. Daniel Griswold. The protocols were the same as those published previously (Geran et al., Cancer Chemotherapy Reports 3: No. 2, 1972 [Attachment 11]). 10^5 cells were implanted intraperitoneally in CD2Fl male mice on Day 0. Drug treatments were given intraperitoneally as single injections at the doses indicated on Days 1, 5 and 9 after tumor implantation. The diluent was saline except for NSC-271674 where 5% sodium bicarbonate was used. All drugs were prepared fresh on the day of injection, and all were administered in solution. Median survival times for both control and drug-treated mice were determined and expressed as a percentage (% T/C). Body weights were determined on Day 5 and expressed as a weight difference (body weight of the drug-treated animals minus that of the control animals in grams) (T-C). The diluent control animals lived a median of 8.4 days and gained 1.9 grams by Day 5 in this experiment. All animals, including Day 30 survivors, were used in the calculation of median survival times. The log10 change in tumor burden refers to the net log change in viable tumor cell population at the end of therapy (Rx) as compared to the start of therapy; e.g., a […] means that there was a […] and a 3 log change means there was a 1000-fold increase in tumor burden at the end of therapy. The tumor burden at the start of therapy was about 6.1×10^5 cells in this experiment. […]

IP L1210 = test: Activity against IP-implanted L1210 leukemia sensitive to cisplatin, 60 day test (Table 4); format: in vivo, Female CD2Fl mice
Description: as §1, §4, §2, §3

[Cl][Pt-2]1([Cl])([Cl])([Cl])[NH2+][C@H]2CCCC[C@@H]2[NH2+]1 [trans (d), (1S, 2S)-Tetrachloro-trans-1,2-cyclohexanediamine platinum (IV)]
30-Day Survivors/Total ([1]; 1 mg/kg/dose IP): 0/6 | Body Weight Difference ([1]; 1 mg/kg/dose IP): -0.3 Grams | Median % T/C ([1]; 1 mg/kg/dose IP): 119% | 30-Day Survivors/Total ([1]; 2 mg/kg/dose IP): 0/6 | Approx. Log10 Change in Tumor Burden at End of Rx ([1]; 2 mg/kg/dose IP): ~2.7 log10 | Body Weight Difference ([1]; 2 mg/kg/dose IP): -0.6 Grams | Median % T/C ([1]; 2 mg/kg/dose IP): 134% | 30-Day Survivors/Total ([1]; 4 mg/kg/dose IP): 1/6 | Approx. Log10 Change in Tumor Burden at End of Rx ([1]; 4 mg/kg/dose IP): ~-1.1 log10 | Body Weight Difference ([1]; 4 mg/kg/dose IP): -0.9 Grams | Median % T/C ([1]; 4 mg/kg/dose IP): 211% | 30-Day Survivors/Total ([1]; 8 mg/kg/dose IP): 3/6 | Approx. Log10 Change in Tumor Burden at End of Rx ([1]; 8 mg/kg/dose IP): ~-5.7 log10 | Body Weight Difference ([1]; 8 mg/kg/dose IP): -1.7 Grams | Median % T/C ([1]; 8 mg/kg/dose IP): 357% | Body Weight Difference ([1]; 8 mg/kg/dose IP, listed as trans d): less than -4 Grams | 30-Day Survivors/Total ([1]; 16 mg/kg/dose IP): 1/6 | Approx. Log10 Change in Tumor Burden at End of Rx ([1]; 16 mg/kg/dose IP): ~-2.0 log10 | Body Weight Difference ([1]; 16 mg/kg/dose IP): -4.9 Grams | Median % T/C ([1]; 16 mg/kg/dose IP): 226% | Optimal dose (dose producing best therapeutic response) ([1]; day 1, 5 and 9 schedule): 8 mg/kg/injection | 60 Day Survivors/Total (IP L1210/Cisplatin [2]; 1 mg/kg/dose): 0/10 | Body Weight Difference (IP L1210/Cisplatin [2]; 1 mg/kg/dose): -0.4 Grams | Median % T/C (IP L1210/Cisplatin [2]; 1 mg/kg/dose): 125% | 60 Day Survivors/Total (IP L1210/Cisplatin [2]; 2 mg/kg/dose): 0/10 | Body Weight Difference (IP L1210/Cisplatin [2]; 2 mg/kg/dose): -0.2 Grams | Median % T/C (IP L1210/Cisplatin [2]; 2 mg/kg/dose): 147% | 60 Day Survivors/Total (IP L1210/Cisplatin [2]; 4 mg/kg/dose): 6/10 | Body Weight Difference (IP L1210/Cisplatin [2]; 4 mg/kg/dose): -1.4 Grams | Median % T/C (IP L1210/Cisplatin [2]; 4 mg/kg/dose): 645% | 60 Day Survivors/Total (IP L1210/Cisplatin [2]; 8 mg/kg/dose): 1/10 | Body Weight Difference (IP L1210/Cisplatin [2]; 8 mg/kg/dose): -4.8 Grams | Median % T/C (IP L1210/Cisplatin [2]; 8 mg/kg/dose): 193% | 60 Day Survivors/Total (IP L1210/Cisplatin [2]; 16 mg/kg/dose): 0/10 | Body Weight Difference (IP L1210/Cisplatin [2]; 16 mg/kg/dose): -6.1 Grams | Median % T/C (IP L1210/Cisplatin [2]; 16 mg/kg/dose): Toxic | 30 Day Survivors/Total (IP L1210/Cisplatin [3]; 1 mg/kg/dose): 0/6 | Approx. Log10 Change in Tumor Burden at End of RX (IP L1210/Cisplatin [3]; 1 mg/kg/dose): ~3.1 log10 | Median % T/C (IP L1210/Cisplatin [3]; 1 mg/kg/dose): 101% | 30 Day Survivors/Total (IP L1210/Cisplatin [3]; 2 mg/kg/dose): 0/6 | Approx. Log10 Change in Tumor Burden at End of RX (IP L1210/Cisplatin [3]; 2 mg/kg/dose): ~2.8 log10 | Median % T/C (IP L1210/Cisplatin [3]; 2 mg/kg/dose): 116% | 30 Day Survivors/Total (IP L1210/Cisplatin [3]; 4 mg/kg/dose): 0/6 | Approx. Log10 Change in Tumor Burden at End of RX (IP L1210/Cisplatin [3]; 4 mg/kg/dose): ~2.4 log10 | Median % T/C (IP L1210/Cisplatin [3]; 4 mg/kg/dose): 139% | 30 Day Survivors/Total (IP L1210/Cisplatin [3]; 8 mg/kg/dose): 3/6 | Approx. Log10 Change in Tumor Burden at End of RX (IP L1210/Cisplatin [3]; 8 mg/kg/dose): ~-5.9 log10 | Median % T/C (IP L1210/Cisplatin [3]; 8 mg/kg/dose): 322% | 30 Day Survivors/Total (IP L1210/Cisplatin [3]; 16 mg/kg/dose): 1/6 | Median % T/C (IP L1210/Cisplatin [3]; 16 mg/kg/dose): 143% | 60 Day Survivors/Total (IP L1210; 1 mg/kg/dose): 0/10 | Body Weight Difference (IP L1210; 1 mg/kg/dose): -0.6 Grams | Median % T/C (IP L1210; 1 mg/kg/dose): 144% | 60 Day Survivors/Total (IP L1210; 2 mg/kg/dose): 3/10 | Body Weight Difference (IP L1210; 2 mg/kg/dose): -1.0 Grams | Median % T/C (IP L1210; 2 mg/kg/dose): 216% | 60 Day Survivors/Total (IP L1210; 4 mg/kg/dose): 0/10 | Body Weight Difference (IP L1210; 4 mg/kg/dose): -1.2 Grams | Median % T/C (IP L1210; 4 mg/kg/dose): 202% | 60 Day Survivors/Total (IP L1210; 8 mg/kg/dose): 3/10 | Body Weight Difference (IP L1210; 8 mg/kg/dose): -3.1 Grams | Median % T/C (IP L1210; 8 mg/kg/dose): 301% | 60 Day Survivors/Total (IP L1210; 16 mg/kg/dose): 0/10 | Body Weight Difference (IP L1210; 16 mg/kg/dose): -7.0 Grams | Median % T/C (IP L1210; 16 mg/kg/dose): Toxic
